Experimental data as given in ChEMBL document CHEMBL1148029, “Synthesis and radiopharmacological characterization of 2beta-carbo-2'-[18F]fluoroethoxy-3beta-(4-bromo-phenyl)tropane ([18F]MCL-322) as a PET radiotracer for imaging the dopamine transporter (DAT)” (Bioorg Med Chem, 2007).

Experiments:
Muscle tissue [1] = test: Biodistribution in Wistar rat muscle at 300 uCi, iv after 5 mins; assay type: ADME, organism-based; settings: in vivo
Heart [2] = test: Biodistribution in Wistar rat heart at 300 uCi, iv after 20 mins; assay type: ADME, organism-based; settings: in vivo
Heart [3] = test: Biodistribution in Wistar rat heart at 300 uCi, iv after 240 mins; assay type: ADME, organism-based; settings: in vivo, 4 h
[4] = Biodistribution in Wistar rat rest of brain at 300 uCi, iv after 5 mins; assay type: ADME, organism-based; settings: in vivo
Harderian gland = test: Biodistribution in Wistar rat harderian glands at 300 uCi, iv after 60 mins; assay type: ADME, organism-based; settings: in vivo, 1 h
Striatum [5] = test: Biodistribution in Wistar rat striatum at 300 uCi, iv after 120 mins; assay type: ADME, organism-based; settings: in vivo, 2 h
Striatum [6] = test: Biodistribution in Wistar rat striatum at 300 uCi, iv after 60 mins; assay type: ADME, organism-based; settings: in vivo, 1 h
Testes [7] = test: Biodistribution in Wistar rat testes at 300 uCi, iv after 240 mins; assay type: ADME, organism-based, Testis; settings: in vivo, 4 h
Lung [8] = test: Biodistribution in Wistar rat lung at 300 uCi, iv after 20 mins; assay type: ADME, organism-based; settings: in vivo
Spleen [9] = test: Biodistribution in Wistar rat spleen at 300 uCi, iv after 5 mins; assay type: ADME, organism-based; settings: in vivo
Blood [10] = test: Biodistribution in Wistar rat blood at 300 uCi, iv after 60 mins in presence of citalopram; assay type: ADME, organism-based; settings: in vivo, 1 h
Spleen [11] = test: Biodistribution in Wistar rat spleen at 300 uCi, iv after 60 mins; assay type: ADME, organism-based; settings: in vivo, 1 h
Muscle tissue [12] = test: Biodistribution in Wistar rat muscle at 300 uCi, iv after 60 mins; assay type: ADME, organism-based; settings: in vivo, 1 h
Pancreas = test: Biodistribution in Wistar rat pancreas at 300 uCi, iv after 20 mins; assay type: ADME, organism-based; settings: in vivo
Spleen [13] = test: Biodistribution in Wistar rat spleen at 300 uCi, iv after 20 mins; assay type: ADME, organism-based; settings: in vivo
[14] = Biodistribution in Wistar rat rest of brain at 300 uCi, iv after 60 mins; assay type: ADME, organism-based; settings: in vivo, 1 h
Lung [15] = test: Biodistribution in Wistar rat lung at 300 uCi, iv after 120 mins; assay type: ADME, organism-based; settings: in vivo, 2 h
Adrenal = test: Biodistribution in Wistar rat adrenal gland at 300 uCi, iv after 20 mins; assay type: ADME, organism-based, Adrenal tissue; settings: in vivo
Thymus [16] = test: Biodistribution in Wistar rat thymus at 300 uCi, iv after 60 mins; assay type: ADME, organism-based; settings: in vivo, 1 h
Spleen [17] = test: Biodistribution in Wistar rat spleen at 300 uCi, iv after 120 mins; assay type: ADME, organism-based; settings: in vivo, 2 h
Muscle tissue [18] = test: Biodistribution in Wistar rat muscle at 300 uCi, iv after 20 mins; assay type: ADME, organism-based; settings: in vivo
Cortex [19] = test: Biodistribution in Wistar rat cortex at 300 uCi, iv after 20 mins; assay type: ADME, organism-based; settings: in vivo
Liver [20] = test: Biodistribution in Wistar rat liver at 300 uCi, iv after 20 mins; assay type: ADME, organism-based; settings: in vivo
Kidney [21] = test: Biodistribution in Wistar rat kidney at 300 uCi, iv after 240 mins; assay type: ADME, organism-based; settings: in vivo, 4 h
Femur [22] = test: Biodistribution in Wistar rat femur at 300 uCi, iv after 240 mins; assay type: ADME, organism-based; settings: in vivo, 4 h
Plasma [23] = test: Metabolic stability in Wistar rat plasma assessed as polar metabolite level at 1 mCi, iv after 30 mins; assay type: ADME, organism-based; settings: in vivo, 0.5 h
Blood [24] = test: Biodistribution in Wistar rat blood at 300 uCi, iv after 240 mins; assay type: ADME, organism-based; settings: in vivo, 4 h
Liver [25] = test: Biodistribution in Wistar rat liver at 300 uCi, iv after 60 mins; assay type: ADME, organism-based; settings: in vivo, 1 h
Brain [26] = test: Biodistribution in Wistar rat rest of brain at 300 uCi, iv after 60 mins in presence of nisoxetine; assay type: ADME, organism-based; settings: in vivo, 1 h
Cortex [27] = test: Biodistribution in Wistar rat cortex at 300 uCi, iv after 60 mins in presence of nisoxetine; assay type: ADME, organism-based; settings: in vivo, 1 h
Testes [28] = test: Biodistribution in Wistar rat testes at 300 uCi, iv after 20 mins; assay type: ADME, organism-based, Testis; settings: in vivo
Heart [29] = test: Biodistribution in Wistar rat heart at 300 uCi, iv after 5 mins; assay type: ADME, organism-based; settings: in vivo
Heart [30] = test: Biodistribution in Wistar rat heart at 300 uCi, iv after 60 mins; assay type: ADME, organism-based; settings: in vivo, 1 h
Hippocampus [31] = test: Biodistribution in Wistar rat hippocampus at 300 uCi, iv after 60 mins in presence of nisoxetine; assay type: ADME, organism-based; settings: in vivo, 1 h
Femur [32] = test: Biodistribution in Wistar rat femur at 300 uCi, iv after 20 mins; assay type: ADME, organism-based; settings: in vivo
Blood [33] = test: Biodistribution in Wistar rat blood at 300 uCi, iv after 20 mins; assay type: ADME, organism-based; settings: in vivo
Striatum [34] = test: Biodistribution in Wistar rat striatum at 300 uCi, iv after 60 mins in presence of citalopram; assay type: ADME, organism-based; settings: in vivo, 1 h
Striatum [35] = test: Biodistribution in Wistar rat striatum at 300 uCi, iv after 240 mins; assay type: ADME, organism-based; settings: in vivo, 4 h
Blood [36] = test: Biodistribution in Wistar rat blood at 300 uCi, iv after 60 mins in presence of nisoxetine; assay type: ADME, organism-based; settings: in vivo, 1 h
Brain [37] = test: Biodistribution in Wistar rat rest of brain at 300 uCi, iv after 60 mins in presence of GBR-12909; assay type: ADME, organism-based; settings: in vivo, 1 h
Thymus [38] = test: Biodistribution in Wistar rat thymus at 300 uCi, iv after 5 mins; assay type: ADME, organism-based; settings: in vivo
Cerebellum [39] = test: Biodistribution in Wistar rat cerebellum at 300 uCi, iv after 60 mins in presence of GBR-12909; assay type: ADME, organism-based; settings: in vivo, 1 h
[40] = Biodistribution in Wistar rat hair and skin at 300 uCi, iv after 5 mins; assay type: ADME, organism-based; settings: in vivo
Kidney [41] = test: Biodistribution in Wistar rat kidney at 300 uCi, iv after 120 mins; assay type: ADME, organism-based; settings: in vivo, 2 h
Brain [42] = test: Biodistribution in Wistar rat rest of brain at 300 uCi, iv after 60 mins in presence of citalopram; assay type: ADME, organism-based; settings: in vivo, 1 h
Cerebellum [43] = test: Biodistribution in Wistar rat cerebellum at 300 uCi, iv after 60 mins; assay type: ADME, organism-based; settings: in vivo, 1 h
Testes [44] = test: Biodistribution in Wistar rat testes at 300 uCi, iv after 5 mins; assay type: ADME, organism-based, Testis; settings: in vivo
Blood [45] = test: Biodistribution in Wistar rat blood at 300 uCi, iv after 120 mins; assay type: ADME, organism-based; settings: in vivo, 2 h
Cerebellum [46] = test: Biodistribution in Wistar rat cerebellum at 300 uCi, iv after 120 mins; assay type: ADME, organism-based; settings: in vivo, 2 h
Blood [47] = test: Biodistribution in Wistar rat blood at 300 uCi, iv after 60 mins in presence of GBR-12909; assay type: ADME, organism-based; settings: in vivo, 1 h
Cerebellum [48] = test: Biodistribution in Wistar rat cerebellum at 300 uCi, iv after 20 mins; assay type: ADME, organism-based; settings: in vivo
Plasma [49] = test: Metabolic stability in Wistar rat plasma assessed as polar metabolite level at 1 mCi, iv after 60 mins; assay type: ADME, organism-based; settings: in vivo, 1 h
Femur [50] = test: Biodistribution in Wistar rat femur at 300 uCi, iv after 5 mins; assay type: ADME, organism-based; settings: in vivo
Femur [51] = test: Biodistribution in Wistar rat femur at 300 uCi, iv after 120 mins; assay type: ADME, organism-based; settings: in vivo, 2 h
Plasma [52] = test: Metabolic stability in Wistar rat plasma assessed as polar metabolite level at 1 mCi, iv after 240 mins; assay type: ADME, organism-based; settings: in vivo, 4 h
[53] = Biodistribution in Wistar rat hair and skin at 300 uCi, iv after 120 mins; assay type: ADME, organism-based; settings: in vivo, 2 h
Hippocampus [54] = test: Biodistribution in Wistar rat hippocampus at 300 uCi, iv after 20 mins; assay type: ADME, organism-based; settings: in vivo
Plasma [55] = test: Metabolic stability in Wistar rat plasma assessed as polar metabolite level at 1 mCi, iv after 5 mins; assay type: ADME, organism-based; settings: in vivo
Cortex [56] = test: Biodistribution in Wistar rat cortex at 300 uCi, iv after 5 mins; assay type: ADME, organism-based; settings: in vivo
[57] = Biodistribution in Wistar rat hair and skin at 300 uCi, iv after 60 mins; assay type: ADME, organism-based; settings: in vivo, 1 h
Lung [58] = test: Biodistribution in Wistar rat lung at 300 uCi, iv after 5 mins; assay type: ADME, organism-based; settings: in vivo

CN1C2CCC1C(C(=O)OCC[18F])C(c1ccc(Br)cc1)C2 (stereo unspecified)
Drug uptake (Muscle tissue [1]): 0.42 % ID/g | Drug uptake (Heart [2]): 0.48 % ID/g | Drug uptake (Heart [3]): 0.07 % ID/g | Drug uptake [4]: 2.53 % ID/g | Drug uptake (Harderian gland): 2.37 % ID/g | Drug uptake (Striatum [5]): 0.39 % ID/g | Drug uptake (Striatum [6]): 3.71 % ID/g | Drug uptake (Testes [7]): 0.17 % ID/g | Drug uptake (Lung [8]): 2.58 % ID/g | Drug uptake (Spleen [9]): 1.51 % ID/g | Drug uptake (Blood [10]): 0.052 % ID/g | Drug uptake (Spleen [11]): 0.58 % ID/g | Drug uptake (Muscle tissue [12]): 0.16 % ID/g | Drug uptake (Pancreas): 1.23 % ID/g | Drug uptake (Spleen [13]): 1.41 % ID/g | Drug uptake [14]: 1.1 % ID/g | Drug uptake (Lung [15]): 0.54 % ID/g | Drug uptake (Adrenal): 1.21 % ID/g | Drug uptake (Thymus [16]): 0.41 % ID/g | Drug uptake (Spleen [17]): 0.29 % ID/g | Drug uptake (Muscle tissue [18]): 0.33 % ID/g | Drug uptake (Cortex [19]): 2.29 % ID/g | Drug uptake (Liver [20]): 6.8 % ID/g | Drug uptake (Kidney [21]): 0.83 % ID/g | Drug uptake (Femur [22]): 0.07 % ID/g | Stability (Plasma [23]): 76% | Drug uptake (Blood [24]): 0.03 % ID/g | Drug uptake (Liver [25]): 11.8 % ID/g | Drug uptake (Brain [26]): 1.23 % ID/g | Drug uptake (Cortex [27]): 0.96 % ID/g | Drug uptake (Testes [28]): 0.45 % ID/g | Drug uptake (Heart [29]): 1.09 % ID/g | Drug uptake (Heart [30]): 0.21 % ID/g | Drug uptake (Hippocampus [31]): 0.91 % ID/g | Drug uptake (Femur [32]): 0.42 % ID/g | Drug uptake (Blood [33]): 0.07 % ID/g | Drug uptake (Striatum [34]): 6.43 % ID/g | Drug uptake (Striatum [35]): 2.45 % ID/g | Drug uptake (Blood [36]): 0.04 % ID/g | Drug uptake (Brain [37]): 1.07 % ID/g | Drug uptake (Thymus [38]): 0.89 % ID/g | Drug uptake (Cerebellum [39]): 0.62 % ID/g | Drug uptake [40]: 0.47 % ID/g | Drug uptake (Kidney [41]): 1.84 % ID/g | Drug uptake (Brain [42]): 1.56 % ID/g | Drug uptake (Cerebellum [43]): 0.56 % ID/g | Drug uptake (Testes [44]): 0.33 % ID/g | Drug uptake (Blood [45]): 0.03 % ID/g | Drug uptake (Cerebellum [46]): 0.24 % ID/g | Drug uptake (Blood [47]): 0.04 % ID/g | Drug uptake (Cerebellum [48]): 1.37 % ID/g | Stability (Plasma [49]): 85% | Drug uptake (Femur [50]): 0.59 % ID/g | Drug uptake (Femur [51]): 0.1 % ID/g | Stability (Plasma [52]): > 98% | Drug uptake [53]: 0.17 % ID/g | Drug uptake (Hippocampus [54]): 1.99 % ID/g | Stability (Plasma [55]): 42% | Drug uptake (Cortex [56]): 3.19 % ID/g | Drug uptake [57]: 0.29 % ID/g | Drug uptake (Lung [58]): 6.53 % ID/g
